ChEMBL document CHEMBL3991601, “The target landscape of clinical kinase drugs” (Science, 2017)
The source made the active and inactive calls.

Key:
[1] = target: T1, Isoleucine--tRNA ligase, mitochondrial (Homo sapiens, UniProt Q9NSE4)
T1 sequence (Q9NSE4 whole entry): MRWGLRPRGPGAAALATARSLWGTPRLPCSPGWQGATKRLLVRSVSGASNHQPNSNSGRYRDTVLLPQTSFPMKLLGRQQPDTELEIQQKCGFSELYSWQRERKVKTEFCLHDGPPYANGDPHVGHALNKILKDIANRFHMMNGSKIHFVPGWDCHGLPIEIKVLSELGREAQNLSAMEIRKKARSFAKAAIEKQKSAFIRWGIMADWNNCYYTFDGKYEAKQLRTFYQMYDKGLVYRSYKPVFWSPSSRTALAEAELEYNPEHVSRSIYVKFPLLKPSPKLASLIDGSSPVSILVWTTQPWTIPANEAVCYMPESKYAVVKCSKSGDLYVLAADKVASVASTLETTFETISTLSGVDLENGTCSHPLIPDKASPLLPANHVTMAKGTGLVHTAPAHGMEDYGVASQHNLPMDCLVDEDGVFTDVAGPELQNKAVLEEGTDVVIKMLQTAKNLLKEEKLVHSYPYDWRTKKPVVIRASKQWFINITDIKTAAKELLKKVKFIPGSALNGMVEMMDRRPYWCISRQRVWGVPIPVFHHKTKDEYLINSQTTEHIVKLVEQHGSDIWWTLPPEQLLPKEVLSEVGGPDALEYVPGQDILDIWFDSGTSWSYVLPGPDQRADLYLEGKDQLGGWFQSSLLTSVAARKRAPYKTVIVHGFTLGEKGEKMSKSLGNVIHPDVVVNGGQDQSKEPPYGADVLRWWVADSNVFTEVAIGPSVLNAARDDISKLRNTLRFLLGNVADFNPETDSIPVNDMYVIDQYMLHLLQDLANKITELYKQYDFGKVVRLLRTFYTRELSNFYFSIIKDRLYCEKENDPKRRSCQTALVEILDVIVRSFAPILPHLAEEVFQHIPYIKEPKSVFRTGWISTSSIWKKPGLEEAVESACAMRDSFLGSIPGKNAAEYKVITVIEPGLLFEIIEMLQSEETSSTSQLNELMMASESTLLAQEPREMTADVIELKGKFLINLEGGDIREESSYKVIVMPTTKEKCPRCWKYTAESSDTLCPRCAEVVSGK

[2] = target: T2, Eukaryotic translation initiation factor 5B (Homo sapiens, UniProt O60841)
T2 sequence (O60841 whole entry): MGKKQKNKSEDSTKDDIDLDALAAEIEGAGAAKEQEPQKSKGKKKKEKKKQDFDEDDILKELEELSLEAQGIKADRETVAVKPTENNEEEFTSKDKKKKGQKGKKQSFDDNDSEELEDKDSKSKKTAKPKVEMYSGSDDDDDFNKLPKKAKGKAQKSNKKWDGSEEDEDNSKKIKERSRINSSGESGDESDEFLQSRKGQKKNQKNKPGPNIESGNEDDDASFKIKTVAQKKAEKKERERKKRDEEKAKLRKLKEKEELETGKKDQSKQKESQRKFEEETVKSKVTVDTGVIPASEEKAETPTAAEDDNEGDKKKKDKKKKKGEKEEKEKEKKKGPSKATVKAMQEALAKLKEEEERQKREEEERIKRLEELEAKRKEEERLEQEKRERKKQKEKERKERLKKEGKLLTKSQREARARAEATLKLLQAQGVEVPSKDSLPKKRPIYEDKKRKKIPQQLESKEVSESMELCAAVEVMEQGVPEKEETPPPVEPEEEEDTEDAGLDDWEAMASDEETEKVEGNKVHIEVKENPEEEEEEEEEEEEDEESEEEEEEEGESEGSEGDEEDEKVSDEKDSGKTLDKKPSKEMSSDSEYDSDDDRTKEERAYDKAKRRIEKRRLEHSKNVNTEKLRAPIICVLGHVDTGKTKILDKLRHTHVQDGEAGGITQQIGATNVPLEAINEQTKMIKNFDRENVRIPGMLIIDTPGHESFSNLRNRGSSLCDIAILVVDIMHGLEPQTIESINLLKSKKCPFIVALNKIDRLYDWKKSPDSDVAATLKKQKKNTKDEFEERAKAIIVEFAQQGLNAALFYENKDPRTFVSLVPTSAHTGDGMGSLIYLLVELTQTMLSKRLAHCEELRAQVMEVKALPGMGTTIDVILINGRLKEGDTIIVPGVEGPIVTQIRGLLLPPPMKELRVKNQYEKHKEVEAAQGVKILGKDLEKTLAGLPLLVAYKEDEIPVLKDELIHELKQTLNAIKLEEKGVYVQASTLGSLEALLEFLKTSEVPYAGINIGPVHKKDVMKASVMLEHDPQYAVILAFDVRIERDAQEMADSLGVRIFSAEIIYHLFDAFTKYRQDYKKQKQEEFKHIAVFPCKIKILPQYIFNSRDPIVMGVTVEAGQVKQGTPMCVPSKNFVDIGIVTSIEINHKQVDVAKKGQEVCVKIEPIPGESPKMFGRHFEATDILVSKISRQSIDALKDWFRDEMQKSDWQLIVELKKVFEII

[3] = target: Protein kinase C theta type (Homo sapiens, UniProt Q04759)
[4] = target: Dual specificity mitogen-activated protein kinase kinase 1 (Homo sapiens, UniProt Q02750)
[5] = target: G protein-coupled receptor kinase 6 (Homo sapiens, UniProt P43250)
Note: in the data inactive means no Kd found up to 30 µM.

Sequence of Dual specificity mitogen-activated protein kinase kinase 1 (Q02750 whole entry): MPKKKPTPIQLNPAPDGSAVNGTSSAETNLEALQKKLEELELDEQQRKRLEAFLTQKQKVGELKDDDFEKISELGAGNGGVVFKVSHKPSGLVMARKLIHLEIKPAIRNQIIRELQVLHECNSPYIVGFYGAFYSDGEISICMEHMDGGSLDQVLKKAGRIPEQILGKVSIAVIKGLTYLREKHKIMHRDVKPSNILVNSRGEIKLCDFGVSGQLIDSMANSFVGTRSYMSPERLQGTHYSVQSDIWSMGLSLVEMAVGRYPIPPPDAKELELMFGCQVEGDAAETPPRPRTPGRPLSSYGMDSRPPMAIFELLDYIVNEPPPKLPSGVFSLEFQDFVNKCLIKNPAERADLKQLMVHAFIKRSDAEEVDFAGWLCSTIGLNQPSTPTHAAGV
Sequence of Protein kinase C theta type (Q04759 whole entry): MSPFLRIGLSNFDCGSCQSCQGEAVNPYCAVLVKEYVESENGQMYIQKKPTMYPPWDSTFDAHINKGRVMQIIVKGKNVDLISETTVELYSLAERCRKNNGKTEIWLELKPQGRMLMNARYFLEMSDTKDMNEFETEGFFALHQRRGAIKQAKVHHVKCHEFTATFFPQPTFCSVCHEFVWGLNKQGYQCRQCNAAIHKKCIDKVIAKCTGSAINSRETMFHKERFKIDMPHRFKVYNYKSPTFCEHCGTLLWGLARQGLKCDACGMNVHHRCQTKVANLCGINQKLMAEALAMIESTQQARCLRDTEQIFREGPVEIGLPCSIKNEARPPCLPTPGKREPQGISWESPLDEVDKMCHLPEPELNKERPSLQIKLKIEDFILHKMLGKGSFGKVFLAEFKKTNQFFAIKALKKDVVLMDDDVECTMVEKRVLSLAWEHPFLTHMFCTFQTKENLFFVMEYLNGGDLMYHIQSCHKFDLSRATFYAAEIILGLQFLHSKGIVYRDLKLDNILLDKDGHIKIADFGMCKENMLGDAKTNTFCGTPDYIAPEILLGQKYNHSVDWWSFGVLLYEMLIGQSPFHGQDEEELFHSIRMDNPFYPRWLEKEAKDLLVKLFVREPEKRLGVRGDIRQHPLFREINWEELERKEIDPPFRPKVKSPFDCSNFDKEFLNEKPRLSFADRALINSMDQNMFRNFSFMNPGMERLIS
Sequence of G protein-coupled receptor kinase 6 (P43250 whole entry): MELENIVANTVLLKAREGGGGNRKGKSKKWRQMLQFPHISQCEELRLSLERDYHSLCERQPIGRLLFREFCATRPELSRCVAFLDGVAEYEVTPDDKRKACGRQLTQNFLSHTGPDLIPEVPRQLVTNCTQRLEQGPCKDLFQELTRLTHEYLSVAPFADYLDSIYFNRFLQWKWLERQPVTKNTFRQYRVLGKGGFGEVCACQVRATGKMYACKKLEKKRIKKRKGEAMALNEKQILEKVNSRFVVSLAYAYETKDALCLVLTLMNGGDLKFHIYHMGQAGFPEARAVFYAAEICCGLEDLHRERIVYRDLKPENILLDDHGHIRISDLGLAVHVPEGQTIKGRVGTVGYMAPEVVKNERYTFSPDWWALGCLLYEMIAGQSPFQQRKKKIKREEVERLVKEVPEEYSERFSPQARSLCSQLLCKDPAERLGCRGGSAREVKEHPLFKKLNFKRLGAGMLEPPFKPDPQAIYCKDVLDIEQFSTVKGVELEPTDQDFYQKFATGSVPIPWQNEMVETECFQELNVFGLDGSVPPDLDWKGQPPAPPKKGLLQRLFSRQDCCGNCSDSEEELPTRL

| SMILES | Kd [1] | Kd [2] | Kd [3] | Kd [4] | Kd [5] |
| --- | --- | --- | --- | --- | --- |
| COc1cc2ncnc3c2cc1OCCCCCN(C)Cc1ccc(Br)cc1N3 [JNJ-26483327] | > 30 µM (inactive) | > 30 µM (inactive) | > 30 µM (inactive) | > 30 µM (inactive) | – |
| Cc1cc(C(=O)Nc2cc(Oc3ccc4nc(NC(=O)C5CC5)cn4n3)ccc2C)n(C)n1 [TAK-593] | – | – | > 30 µM (inactive) | > 30 µM (inactive) | > 30 µM (inactive) |
| C[C@]1(O)C[C@@H](c2nc(-c3ccc4ccc(-c5ccccc5)nc4c3)c3c(N)nccn32)C1 [LINSITINIB] | – | > 30 µM (inactive) | > 30 µM (inactive) | – | > 30 µM (inactive) |
| COc1cc2ncnc(Nc3ccc(O)cc3)c2cc1OC [WHI-P131] | – | > 30 µM (inactive) | > 30 µM (inactive) | > 30 µM (inactive) | – |
| O=C(O)c1ccc2c(c1)nc(Nc1cccc(Cl)c1)c1ccncc12 [SILMITASERTIB] | – | – | – | > 30 µM (inactive) | – |
| CN(c1ncccc1CNc1nc(Nc2ccc3c(c2)CC(=O)N3)ncc1C(F)(F)F)S(C)(=O)=O [PF-00562271] | > 30 µM (inactive) | > 30 µM (inactive) | – | – | – |
| O[C@H]1CC[C@H](Nc2ncc3nc(Nc4c(F)cc(F)cc4F)n([C@H]4CCOC4)c3n2)CC1 [TANZISERTIB] | > 30 µM (inactive) | > 30 µM (inactive) | > 30 µM (inactive) | > 30 µM (inactive) | – |
| Cn1c(=O)n(-c2ccc(C(C)(C)C#N)cc2)c2c3cc(-c4cnc5ccccc5c4)ccc3ncc21 [DACTOLISIB] | > 30 µM (inactive) | > 30 µM (inactive) | – | – | – |
| CCOc1ccn(-c2ccc(F)cc2)c(=O)c1C(=O)Nc1ccc(Oc2ccnc(N)c2Cl)c(F)c1 [BMS-777607] | > 30 µM (inactive) | > 30 µM (inactive) | > 30 µM (inactive) | > 30 µM (inactive) | – |
| Cn1cnc2c(F)c(Nc3ccc(Br)cc3Cl)c(C(=O)NOCCO)cc21 [SELUMETINIB] | > 30 µM (inactive) | > 30 µM (inactive) | – | – | – |
| O=S(=O)(c1cccc2cnccc12)N1CCCNCC1 [FASUDIL] | – | > 30 µM (inactive) | – | – | > 30 µM (inactive) |
| COc1cc2c(N3CCN(C(=O)Nc4ccc(OC(C)C)cc4)CC3)ncnc2cc1OCCCN1CCCCC1 [TANDUTINIB] | – | > 30 µM (inactive) | – | – | > 30 µM (inactive) |
| CNC(=O)c1ccc(Nc2ncc(C(F)(F)F)c(NCc3nccnc3N(C)S(C)(=O)=O)n2)cc1 [DEFACTINIB] | – | – | > 30 µM (inactive) | > 30 µM (inactive) | > 30 µM (inactive) |
| CC(C)(O)CC(=O)NCCn1ccc2ncnc(Nc3ccc(Oc4cccc(C(F)(F)F)c4)c(Cl)c3)c21 [TAK-285] | – | – | > 30 µM (inactive) | > 30 µM (inactive) | – |
| c1cc(OCCN2CCCCC2)cc(-c2n[nH]c3ccc(-c4nc[nH]n4)cc23)c1 [CC-401] | – | – | > 30 µM (inactive) | > 30 µM (inactive) | > 30 µM (inactive) |
| COc1cc(Nc2ncc(F)c(Nc3ccc4c(n3)N(COP(=O)(O)O)C(=O)C(C)(C)O4)n2)cc(OC)c1OC [FOSTAMATINIB] | > 30 µM (inactive) | – | > 30 µM (inactive) | > 30 µM (inactive) | – |
| CC[C@@](C)(Nc1ccnc(-c2c[nH]c3ncccc23)n1)C(=O)NCC(F)(F)F [DECERNOTINIB] | – | – | – | > 30 µM (inactive) | – |
| C=CCn1c(=O)c2cnc(Nc3ccc(N4CCN(C)CC4)cc3)nc2n1-c1cccc(C(C)(C)O)n1 [ADAVOSERTIB] | > 30 µM (inactive) | > 30 µM (inactive) | – | – | – |

| SMILES | Kd [1] | Kd [2] | Kd [3] | Kd [4] | Kd [5] |
| --- | --- | --- | --- | --- | --- |
| CC1(C)CNc2cc(NC(=O)c3cccnc3NCc3ccncc3)ccc21 [MOTESANIB] | – | > 30 µM (inactive) | – | – | > 30 µM (inactive) |
| O=c1[nH]c([C@@H]2CCCN2)nc2c1oc1ccc(Cl)cc12 | – | > 30 µM (inactive) | > 30 µM (inactive) | > 30 µM (inactive) | – |
| NC(=O)c1ccc(N(C(N)=O)c2c(F)cccc2F)nc1-c1ccc(F)cc1F [VX-702] | – | > 30 µM (inactive) | > 30 µM (inactive) | > 30 µM (inactive) | – |
| COCCN1CCN(Cc2ccc(-c3n[nH]c4c3C(=O)c3c(NC(=O)NN5CCOCC5)cccc3-4)cc2)CC1 [RGB-286638] | > 30 µM (inactive) | > 30 µM (inactive) | > 30 µM (inactive) | > 30 µM (inactive) | – |
| CCc1nc(C(N)=O)c(Nc2ccc(N3CCC(N4CCN(C)CC4)CC3)c(OC)c2)nc1NC1CCOCC1 [GILTERITINIB] | – | > 30 µM (inactive) | – | – | – |
| CCN1CCN(Cc2ccc(Nc3ncc(F)c(-c4cc(F)c5nc(C)n(C(C)C)c5c4)n3)nc2)CC1 [ABEMACICLIB] | > 30 µM (inactive) | > 30 µM (inactive) | > 30 µM (inactive) | > 30 µM (inactive) | – |
| COc1cccc(Nc2ncnn3ccc(CN4CC[C@@H](N)[C@H](O)C4)c23)c1 [BMS-690514] | – | – | > 30 µM (inactive) | > 30 µM (inactive) | – |
| C=CC(=O)Nc1cccc(Nc2nc(Nc3ccc(N4CCN(C(C)=O)CC4)cc3OC)ncc2C(F)(F)F)c1 [ROCILETINIB] | > 30 µM (inactive) | > 30 µM (inactive) | – | > 30 µM (inactive) | – |
| O=C(NOC[C@H](O)CO)c1ccc(F)c(F)c1Nc1ccc(I)cc1F [MIRDAMETINIB] | – | > 30 µM (inactive) | > 30 µM (inactive) | – | > 30 µM (inactive) |
| O=C(NC[C@H](O)CO)c1ccncc1Nc1ccc(I)cc1F [PIMASERTIB] | 0.011 µM | > 30 µM (inactive) | > 30 µM (inactive) | – | – |
| Cc1cc(-c2cc(OC(=O)c3ccccc3)ccc2Cl)cc2nnc(Nc3ccc(OCCN4CCCC4)cc3)nc12 [TG100-801] | – | – | > 30 µM (inactive) | > 30 µM (inactive) | – |
| NC[C@@](O)(c1ccc(Cl)cc1)c1ccc(-c2cn[nH]c2)cc1 [AT-13148] | > 30 µM (inactive) | > 30 µM (inactive) | > 30 µM (inactive) | > 30 µM (inactive) | – |
| C=CCN(/C=C1/C(=O)O[C@H](COC)[C@@]2(C)C1=C(O)C(=O)C1=C2[C@H](OC(C)=O)C[C@]2(C)C(=O)CC[C@@H]12)CC=C [SONOLISIB] | – | – | – | > 30 µM (inactive) | – |
| N#CCNC(=O)c1ccc(-c2ccnc(Nc3ccc(N4CCOCC4)cc3)n2)cc1 [MOMELOTINIB] | > 30 µM (inactive) | – | – | – | – |
| COc1cc2nccc(Oc3ccc(NC(=O)C4(C(=O)Nc5ccc(F)cc5)CC4)cc3)c2cc1OC [CABOZANTINIB] | > 30 µM (inactive) | > 30 µM (inactive) | > 30 µM (inactive) | > 30 µM (inactive) | – |
| C[C@@H]1COC(Nc2ccc3ncnc(Nc4ccc(OCc5nccs5)c(Cl)c4)c3c2)=N1 [VARLITINIB] | – | – | > 30 µM (inactive) | > 30 µM (inactive) | > 30 µM (inactive) |
| Cc1c(NC(=O)OC[C@@H]2COCCN2)cn2ncnc(Nc3ccc4c(cnn4Cc4cccc(F)c4)c3)c12 [AC-480] | – | – | > 30 µM (inactive) | > 30 µM (inactive) | – |
| CCN(CCCOc1ccc2c(Nc3cc(CC(=O)Nc4cccc(F)c4)n[nH]3)ncnc2c1)CCOP(=O)(O)O [BARASERTIB] | > 30 µM (inactive) | > 30 µM (inactive) | – | – | – |
